Measured values published in patent publication US20230102520A1, “INHIBITORS OF LOW MOLECULAR WEIGHT PROTEIN TYROSINE PHOSPHATASE (LMPTP) AND USES THEREOF” (Sanford Burnham Prebys Medical Discovery Institute, priority 2019, published 2023).

The molecules below were run against T1, human LMPTP-A (Homo sapiens, UniProt P24666) (assay: Enzyme Assay of Inhibition of LMPTP-A). Conditions: phosphatase assay, OMFP or pNPP substrate, 50 mM Bis-Tris pH 6.0, 37° C.
T1 sequence (P24666 1-158): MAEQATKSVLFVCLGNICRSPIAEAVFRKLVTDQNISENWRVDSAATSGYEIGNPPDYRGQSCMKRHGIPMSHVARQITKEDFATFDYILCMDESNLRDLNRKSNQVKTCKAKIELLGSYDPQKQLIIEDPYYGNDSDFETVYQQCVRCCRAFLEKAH
Format: biochemical
Method: Example B-1: Enzyme Assay of Inhibition of LMPTP-A
Phosphatase assays were performed in buffer containing 50 mM Bis-Tris, pH 6.0, 1 mM DTT and 0.01% Triton X-100 at 37° C. For assays conducted with 3-O-methylfluorescein phosphate (OMFP) as substrate, fluorescence was monitored continuously at λex=485 and λem=525 nm. For assays conducted with para-nitrophenylphosphate (pNPP) as substrate, the reaction was stopped by addition of 2× reaction volume of 1 M NaOH, and absorbance was measured at 405 nm. IC50 values of compounds disclosed herein were determined from plots of inhibitor concentration versus percentage of enzyme activity. For inhibitor selectivity assays, each PTP was incubated with either 0.4 mM OMFP or 5 mM pNPP in the presence of 40 μM compound or DMSO. […] For the inhibitor reversibility assay, 50 nM human LMPTP-A was pre-incubated with 10 μM of compound disclosed herein or DMSO for 5 min. The enzyme was diluted 100× in phosphatase assay buffer containing 0.4 mM OMFP and fluorescence was measured at the indicated time points.

Structure (SMILES) | IC50 [nM]
Cc1ccccc1-c1nc2c(N)nc(C)n(Cc3c(Cl)cncc3Cl)c-2n1 [3-[(3,5-dichloro(4-pyridyl))methyl]-2-methyl-8-(2-methylphenyl)-3-hydropurine-6-ylamine] | 1000 to 20000
Cc1cc(-c2nc3c(N)ncn(Cc4c(Cl)cncc4Cl)c-3n2)n(C)n1 [3-[(3,5-dichloro(4-pyridyl))methyl]-8-(1,3-dimethylpyrazol-5-yl)-3-hydropurine-6-ylamine] | < 1000
Cn1cnc2cc(-c3nc4c(N)ncn(Cc5c(Cl)cncc5Cl)c-4n3)ccc21 [3-[(3,5-dichloro(4-pyridyl))methyl]-8-(1-methylbenzimidazol-5-yl)-3-hydropurine-6-ylamine] | < 1000
Cn1cnc2ccc(-c3nc4c(N)ncn(Cc5c(Cl)cncc5Cl)c-4n3)cc21 [3-[(3,5-dichloro(4-pyridyl))methyl]-8-(1-methylbenzimidazol-6-yl)-3-hydropurine-6-ylamine] | < 1000
Nc1ncn(Cc2c(Cl)cncc2Cl)c2nc(-c3cnn4ccccc34)nc1-2 [3-[(3,5-dichloro(4-pyridyl))methyl]-8-(8-hydropyrazolo[1,5-a]pyridin-3-yl)-3-hydropurine-6-ylamine] | < 1000
Nc1ncn(Cc2c(Cl)cncc2Cl)c2nc(-c3ccn4nccc4c3)nc1-2 [3-[(3,5-dichloro(4-pyridyl))methyl]-8-(8-hydropyrazolo[1,5-a]pyridin-5-yl)-3-hydropurine-6-ylamine] | < 1000
Nc1ncn(Cc2c(Cl)cncc2Cl)c2nc(-c3cnccc3C(F)(F)F)nc1-2 [3-[(3,5-dichloro(4-pyridyl))methyl]-8-[4-(trifluoromethyl)(3-pyridyl)]-3-hydropurine-6-ylamine] | < 1000
Nc1ncn(Cc2c(Cl)cncc2Cl)c2nc(Cc3ccc(F)cc3)nc1-2 [3-[(3,5-dichloro(4-pyridyl))methyl]-8-[(4-fluorophenyl)methyl]-3-hydropurine-6-ylamine] | < 1000
Cc1ccccc1-c1nc2c(N)ncn(Cc3sccc3Cl)c-2n1 [3-[(3-chloro(2-thienyl))methyl]-8-(2-methylphenyl)-3-hydropurine-6-ylamine] | < 1000
Nc1ncn(Cc2sccc2Cl)c2nc(-c3ccccc3)nc1-2 [3-[(3-chloro(2-thienyl))methyl]-8-phenyl-3-hydropurine-6-ylamine] | < 1000
Cc1ccccc1-c1nc2c(N)ncn(Cc3ccncc3Cl)c-2n1 [3-[(3-chloro(4-pyridyl))methyl]-8-(2-methylphenyl)-3-hydropurine-6-ylamine] | < 1000
Cc1ccccc1-c1nc2c(N)ncn(Cc3ccncc3F)c-2n1 [3-[(3-fluoro(4-pyridyl))methyl]-8-(2-methylphenyl)-3-hydropurine-6-ylamine] | < 1000
Nc1ncn(Cc2c(Cl)ncnc2Cl)c2nc(-c3ccccc3)nc1-2 [3-[(4,6-dichloropyrimidin-5-yl)methyl]-8-phenyl-3-hydropurine-6-ylamine] | < 1000
Cc1ccccc1-c1nc2c(N)nc(C)n(Cc3c(Br)cnn3C)c-2n1 [3-[(4-bromo-1-methylpyrazol-5-yl)methyl]-2-methyl-8-(2-methylphenyl)-3-hydropurine-6-ylamine] | 1000 to 20000
Cn1ncc(Br)c1Cn1cnc(N)c2nc(-c3ccccc3)nc1-2 [3-[(4-bromo-1-methylpyrazol-5-yl)methyl]-8-phenyl-3-hydropurine-6-ylamine] | < 1000
Nc1ncn(Cc2c(Br)ccnc2Cl)c2nc(-c3ccccc3)nc1-2 [3-[(4-bromo-2-chloro(3-pyridyl))methyl]-8-phenyl-3-hydropurine-6-ylamine] | < 1000
Nc1ncn(Cc2c(Cl)ccnc2F)c2nc(-c3ccccc3)nc1-2 [3-[(4-chloro-2-fluoro(3-pyridyl))methyl]-8-phenyl-3-hydropurine-6-ylamine] | < 1000
COc1nccc(I)c1Cn1cnc(N)c2nc(-c3ccccc3)nc1-2 [3-[(4-iodo-2-methoxy(3-pyridyl))methyl]-8-phenyl-3-hydropurine-6-ylamine] | < 1000
Cc1ccccc1-c1nc2c(N)ncn(Cc3scnc3C)c-2n1 [3-[(4-methyl(1,3-thiazol-5-yl))methyl]-8-(2-methylphenyl)-3-hydropurine-6-ylamine] | < 1000
Cc1ncsc1Cn1cnc(N)c2nc(-c3ccccc3)nc1-2 [3-[(4-methyl(1,3-thiazol-5-yl))methyl]-8-phenyl-3-hydropurine-6-ylamine] | 1000 to 20000
COc1cccc(OC)c1-c1nc2c(N)ncn(Cc3c(Cl)cnc(Cl)c3Cl)c-2n1 [8-(2,6-dimethoxyphenyl)-3-[(2,3,5-trichloro(4-pyridyl))methyl]-3-hydropurine-6-ylamine] | < 1000
COc1cccc(OC)c1-c1nc2c(N)ncn(Cc3c(Cl)ncc(Cl)c3Cl)c-2n1 [8-(2,6-dimethoxyphenyl)-3-[(2,4,5-trichloro(3-pyridyl))methyl]-3-hydropurine-6-ylamine] | < 1000
Nc1ncn(Cc2c(Cl)cncc2Cl)c2nc(-c3ccc4c(c3)OCO4)nc1-2 [8-(2H-benzo[d]1,3-dioxolen-5-yl)-3-[(3,5-dichloro(4-pyridyl))methyl]-3-hydropurine-6-ylamine] | < 1000
Nc1ncn(Cc2c(Cl)ccnc2Cl)c2nc(C3C4CC5CC(C4)CC3C5)nc1-2 (centres unmarked) [8-adamantan-2-yl-3-[(2,4-dichloro(3-pyridyl))methyl]-3-hydropurine-6-ylamine] | < 1000
Nc1ncn(Cc2c(Cl)cncc2Cl)c2nc(C3C4CC5CC(C4)CC3C5)nc1-2 (centres unmarked) [8-adamantan-2-yl-3-[(3,5-dichloro(4-pyridyl))methyl]-3-hydropurine-6-ylamine] | < 1000
Nc1ncn(Cc2c(Cl)cncc2Cl)c2nc(-c3nc4ccccc4[nH]3)nc1-2 [8-benzimidazol-2-yl-3-[(3,5-dichloro(4-pyridyl))methyl]-3-hydropurine-6-ylamine] | < 1000
Nc1ncn(Cc2c(Cl)cncc2Cl)c2nc(-c3ccc4[nH]cnc4c3)nc1-2 [8-benzimidazol-5-yl-3-[(3,5-dichloro(4-pyridyl))methyl]-3-hydropurine-6-ylamine] | < 1000
Nc1ncn(Cc2c(Cl)cncc2Cl)c2nc(-c3ccc4ccoc4c3)nc1-2 [8-benzo[3,4-b]furan-6-yl-3-[(3,5-dichloro(4-pyridyl))methyl]-3-hydropurine-6-ylamine] | < 1000

Second part, the molecule after the results:

IC50 [nM] | Structure (SMILES)
> 20000 | Nc1ncn(Cc2c(Br)cncc2Br)c2nc(-c3cccc4c3CCCC4)nc1-2 [3-[(3,5-dibromo(4-pyridyl))methyl]-8-(5,6,7,8-tetrahydronaphthyl)-3-hydropurine-6-ylamine]
< 1000 | Nc1ncn(Cc2c(Br)cncc2Br)c2nc(-c3cnn4ccccc34)nc1-2 [3-[(3,5-dibromo(4-pyridyl))methyl]-8-(8-hydropyrazolo[1,5-a]pyridin-3-yl)-3-hydropurine-6-ylamine]
< 1000 | Nc1ncn(Cc2c(Br)cncc2Br)c2nc(-c3ccccc3)nc1-2 [3-[(3,5-dibromo(4-pyridyl))methyl]-8-phenyl-3-hydropurine-6-ylamine]
< 1000 | Nc1ncn(Cc2c(Cl)cncc2Cl)c2nc(-c3cc(F)ccc3F)nc1-2 [3-[(3,5-dichloro(4-pyridyl))methyl]-8-(2,5-difluorophenyl)-3-hydropurine-6-ylamine]
> 20000 | Nc1ncn(Cc2c(Cl)cncc2Cl)c2nc(-c3cccc4c3CCCC4)nc1-2 [3-[(3,5-dichloro(4-pyridyl))methyl]-8-(5,6,7,8-tetrahydronaphthyl)-3-hydropurine-6-ylamine]
< 1000 | COc1cncc(OC)c1Cn1cnc(N)c2nc(-c3ccccc3C)nc1-2 [3-[(3,5-dimethoxy(4-pyridyl))methyl]-8-(2-methylphenyl)-3-hydropurine-6-ylamine]
< 1000 | Cc1ccccc1-c1nc2c(N)ncn(Cc3c(Cl)ncnc3Cl)c-2n1 [3-[(4,6-dichloropyrimidin-5-yl)methyl]-8-(2-methylphenyl)-3-hydropurine-6-ylamine]
< 1000 | Cc1ccccc1-c1nc2c(N)ncn(Cc3c(Br)cnn3C)c-2n1 [3-[(4-bromo-1-methylpyrazol-5-yl)methyl]-8-(2-methylphenyl)-3-hydropurine-6-ylamine]
< 1000 | Cc1ccccc1-c1nc2c(N)ncn(Cc3c(Br)ccnc3Cl)c-2n1 [3-[(4-bromo-2-chloro(3-pyridyl))methyl]-8-(2-methylphenyl)-3-hydropurine-6-ylamine]
< 1000 | Cc1ccccc1-c1nc2c(N)ncn(Cc3c(Cl)ccnc3F)c-2n1 [3-[(4-chloro-2-fluoro(3-pyridyl))methyl]-8-(2-methylphenyl)-3-hydropurine-6-ylamine]
< 1000 | Cc1ccccc1-c1nc2c(N)ncn(Cc3cncc(Cl)c3)c-2n1 [3-[(5-chloro(3-pyridyl))methyl]-8-(2-methylphenyl)-3-hydropurine-6-ylamine]
< 1000 | Cc1ccccc1-c1nc2c(N)ncn(Cc3c(Cl)cnc(Cl)c3Cl)c-2n1 [8-(2-methylphenyl)-3-[(2,3,5-trichloro(4-pyridyl))methyl]-3-hydropurine-6-ylamine]
1000 to 20000 | Nc1ccncc1-c1nc2c(N)ncn(Cc3c(Cl)cncc3Cl)c-2n1 [8-(4-amino(3-pyridyl))-3-[(3,5-dichloro(4-pyridyl))methyl]-3-hydropurine-6-ylamine]
